Data taken from patent US20230069722A1, “TUBULYSINS AND PROTEIN-TUBULYSIN CONJUGATES” (priority 2020, published 2023).
Read-outs that look alike come from different tables or passages of the source. Where a SMILES comes first, the peptide text is derived from it. [ ]: non-standard residue; d: D form. The star is where a group is joined. Dolaproine = CO[C@@H]([C@@H]1CCCN1)[C@@H](C)C(=O)O; Dil = CC[C@H](C)[C@H](NC)[C@@H](CC(=O)O)OC; X1 = C[C@@H](N*)[C@@H](O)c1ccccc1; NMeV = CN[C@H](C(=O)O)C(C)C

Key:
[1] = system: SK-BR-3 human breast adenocarcinoma cell line; assay: SK-BR-3 anti-proliferation / cell kill assay (CellTiter-Glo, 144 hrs); assay type: cell-based; conditions: for IC50: Homo sapiens, SK-BR-3, read-out: SK-BR-3 IC50; for SK-BR-3 Ratio to Xa = H: IC50 ratio to parent payload with Xa = H
Description: Anti-proliferation assays were performed using a SK-BR-3 human breast adenocarcinoma (pleural effusion) cell line. The cells were grown in McCoy's 5a Medium supplemented with 10% FBS, penicillin/streptomycin and L-glutamine. Cells were seeded 1000/well in 96-well plate in 80ul complete growth media one day prior to adding ADCs and incubated at 37° C. 5% CO2 overnight.
The ADCs were 1:3 serially diluted 10 points in assay media (Opti-MEM+0.1% BSA). The concentrations of the testing ADCs cover the range of 1 nM to ˜1000 nM and also starting from different concentrations based on the cell killing potency in order to see EC50 covers, leaving the last well (10th) as blank (no ADC or compound). ADCs were first 1:3 serially diluted 10 points in DMSO starting from […] (the starting concentration of each ADC is different according to the EC50s), leaving the last well as blank (containing only DMSO). 10 μl DMSO-diluted compound was transferred to 990 μl assay media (Opti-MEM+0.1% BSA) in a 96-well deep well dilution plate. 20 μl assay media-diluted ADC was added to cells. Cells were incubated at 37° C. […] for 6 days (144 hrs). Plates were developed by adding 100 μl CTG reagent/well to the cells CellTiter-Glo®, from Promega, Cat. No G7573), shaken at room temperature for 10 min, sealed with white adhesive bottom seal and luminescence was read with Envision. Cell kill %=[1−(T144sample−T144blank)/(T144DMSO−T144blank)]×100%, wherein T144 is the data at 144 hours.
The table below provides the drug-antibody ratios (DARs) for conjugates 1-37, along with the EC50 results from the SKBR assays for the same conjugates. The following linker-payloads (from Table P1) were prepared as described in PCT/US2019/068185, the content of which is hereby incorporated by reference in its entirety: LP4-Ve, LP4-Ve, LP25-Ve, LP25-Ve, LP26-Ve, LP26-Ve, LP17-Ve, LP13-Ve, LP19-Ve, LP2-Ve, LP21-Ve, LP6-Vb, LP24-Vb, LP23-Vb, and LP15-VIh.

[2] = system: HCT15 cells; assay: MDR cell based killing assay, HCT15 cells with or without Verapamil (CellTiter-Glo); design: species or system human; conditions: for IC50: Homo sapiens; for HCT-15 with verapamil Ratio to Xa = H / HCT-15 Ratio to Xa = H: IC50 ratio to parent payload with Xa = H; for HCT-15 Ratio to Xa = H: without verapamil
Method in brief: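 CellTiter-Glo luminescence after 5-day exposure gave viability of 1000 HCT15 cells per well, grown in RPMI/10% FBS ± 5 ug/mL Verapamil. Payload tested from 100 nM down to 15 pM in threefold steps; four-parameter logistic IC50 in molar; MDR shift expressed as −Verapamil/+Verapamil IC50 ratio.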

[3] = system: C4-2 cells; assay: ADC cell based killing assay, C4-2 cells (anti-STEAP2 ADCs); design: species or system human
Description: (§1) To test the ability of the disclosed tubulysin payloads or prodrug payloads to kill human cell lines, an in vitro cytotoxicity assay can be performed. In vitro cytotoxicity of the disclosed payloads, as well as reference compounds, are evaluated using the CellTiter-Glo Assay Kit (Promega, Cat # G7573), in which the quantity of ATP present is used to determine the number of viable cells in culture. For the assay, C4-2, HEK293, or T47D cells are seeded at 4000 cells/well on Nunclon white 96-well plates in complete growth medium (DME high glucose:Ham's F12 at 4:1, 10% FBS, 100 units/ml Penicillin, 100 ug/ml streptomycin, 53 ug/ml glutatmine, 10 ug/ml insulin, 220 ng/ml biotin, 12.5 pg/ml T3, 12.5 ug/ml Adenine, 4 ug/ml transferrin for C42 cells; DME high glucose, 10% FBS, 100 units/ml Penicillin, 100 ug/ml streptomycin, 53 ug/ml glutatmine for HEK293; RPMI, 10% FBS, 100 units/ml Penicillin, 100 ug/ml streptomycin, 53 ug/ml glutatmine, 10 ug/ml insulin, 10 mM HEPEs, 200 nM Sodium Pyruvate for T47D cells) and grown overnight at 37° C. in 5% CO2. […] Relative luminescence units (RLU) can be determined on a Victor plate reader (PerkinElmer). The IC50 values are determined from a four-parameter logistic equation over a 10-point response curve (GraphPad Prism). […]

[4] = system: C4-2 cells; assay: Cell-based killing assay of payloads, C4-2 cells (CellTiter-Glo); design: species or system human
Description: as §1

[5] = HCT-15, read-out: HCT-15 with verapamil IC50
[6] = at the maximum concentration tested

Row | Structure (SMILES) | IC50 [1] | SK-BR-3 Ratio to Xa = H [1] | IC50 ([2]; HCT-15, read-out: HCT-15 IC50) | IC50 [2, 5] | HCT-15 with verapamil Ratio to Xa = H [2] | HCT-15 Ratio to Xa = H [2] | IC50 ([3]; ADCs and reference payload) | maximum percent killing, C4-2 cells [3, 6] | IC50 ([4]; 5-day incubation) | maximum % cell killing, C4-2 cells [4, 6] | HCT-15 IC50/HCT-15+Verapamil IC50 ratio ([2]; IC50 without Verapamil divided by IC50 with Verapamil)
1 | CCCCCCN(C(=O)[C@@H](NC(=O)[C@H]1CCCCN1C)[C@@H](C)CC)[C@H](C[C@@H](OC(C)=O)c1nc(C(=O)N[C@@H](Cc2ccc(NC(=O)CN)cc2)CC(C)(C)C(=O)O)cs1)C(C)C [Compound P28, (4S)-4-({2-[(1R,3R)-1-(acetyloxy)-3-[(2S,3S)—N-hexyl-3-methyl-2-{[(2R)-1-methylpiperidin-2-yl]formamido}pentanamido]-4-methylpentyl]-1,3-thiazol-4-yl}formamido)-5-[4-(2-aminoacetamido)phenyl]-2,2-dimethylpentanoic Acid] | 30 pM | 2.5x | 170 pM | 110 pM | 5.8x | 6.9x |  |  |  |  | 
2 | CCCCCCN(C(=O)[C@@H](NC(=O)[C@H]1CCCCN1)[C@@H](C)CC)[C@H](C[C@@H](OC(C)=O)c1nc(C(=O)N[C@@H](Cc2ccc(NC(=O)CN)c(F)c2)CC(C)(C)C(=O)O)cs1)C(C)C [Compound P27, (4S)-4-({2-[(1R,3R)-1-(acetyloxy)-3-[(2S,3S)—N-hexyl-3-methyl-2-[(2R)-piperidin-2-ylformamido]pentanamido]-4-methylpentyl]-1,3-thiazol-4-yl}formamido)-5-[4-(2-aminoacetamido)-3-fluorophenyl]-2,2-dimethylpentanoic Acid] | 110 pM | 3.9x | 1480 pM | 90 pM | 3.8x | 6.4x |  |  |  |  | 
3 | CCCCCCN(C(=O)[C@@H](NC(=O)[C@H]1CCCCN1C)[C@@H](C)CC)[C@H](C[C@@H](OCC)c1nc(C(=O)N[C@@H](Cc2ccc(NC(=O)CN)cc2)CC(C)(C)C(=O)O)cs1)C(C)C [Compound P31, (4S)-5-[4-(2-aminoacetamido)phenyl]-4-({2-[(1R,3R)-1-ethoxy-3-[(2S,3S)—N-hexyl-3-methyl-2-{[(2R)-1-methylpiperidin-2-yl]formamido}pentanamido]-4-methylpentyl]-1,3-thiazol-4-yl}formamido)-2,2-dimethylpentanoic Acid] | 70 pM | 2.4x | 810 pM | 290 pM | 4.3x | 9.7x |  |  |  |  | 
4 | CCCCCCN(C(=O)[C@@H](NC(=O)[C@H]1CCCCN1C)[C@@H](C)CC)[C@H](C[C@@H](OCC)c1nc(C(=O)N[C@@H](Cc2ccc(NC(=O)CN)c(F)c2)CC(C)(C)C(=O)O)cs1)C(C)C [Compound P26, (4S)-5-[4-(2-aminoacetamido)-3-fluorophenyl]-4-({2-[(1R,3R)-1-ethoxy-3-[(2S,3S)—N-hexyl-3-methyl-2-{[(2R)-1-methylpiperidin-2-yl]formamido}pentanamido]-4-methylpentyl]-1,3-thiazol-4-yl}formamido)-2,2-dimethylpentanoic Acid] | 50 pM | 2.6x | 250 pM | 50 pM | 2.8x | 4.9x |  |  |  |  | 
5 | CCCCCCN(C(=O)[C@@H](NC(=O)[C@H]1CCCCN1C)[C@@H](C)CC)[C@H](C[C@@H](OC(C)=O)c1nc(C(=O)N[C@@H](Cc2ccc(NC(=O)CN)c(F)c2)CC(C)(C)C(=O)O)cs1)C(C)C [Compound P25, (4S)-4-({2-[(1R,3R)-1-(acetyloxy)-3-[(2S,3S)—N-hexyl-3-methyl-2-{[(2R)-1-methylpiperidin-2-yl]formamido}pentanamido]-4-methylpentyl]-1,3-thiazol-4-yl}formamido)-5-[4-(2-aminoacetamido)-3-fluorophenyl]-2,2-dimethylpentanoic Acid] | 30 pM | 1.9x | 80 pM | 40 pM | 4.0x | 4.0x |  |  |  |  | 
6 | CCCCCCN(C(=O)[C@@H](NC(=O)[C@H]1CCCCN1)[C@@H](C)CC)[C@H](C[C@@H](OCC)c1nc(C(=O)N[C@@H](Cc2ccc(NC(=O)CN)cc2)CC(C)(C)C(=O)O)cs1)C(C)C [Compound P32, (4S)-5-[4-(2-aminoacetamido)phenyl]-4-({2-[(1R,3R)-1-ethoxy-3-[(2S,3S)—N-hexyl-3-methyl-2-[(2R)-piperidin-2-ylformamido]pentanamido]-4-methylpentyl]-1,3-thiazol-4-yl}formamido)-2,2-dimethylpentanoic Acid] | > 1000 pM |  | > 100000 pM | > 100000 pM |  |  |  |  |  |  | 
7 | CCCCCCN(C(=O)[C@@H](NC(=O)[C@H]1CCCCN1C)[C@@H](C)CC)[C@H](C[C@@H](O)c1nc(C(=O)N[C@@H](Cc2ccc(NC(=O)CN)c(F)c2)CC(C)(C)C(=O)O)cs1)C(C)C [Compound P24, (4S)-5-[4-(2-aminoacetamido)-3-fluorophenyl]-4-({2-[(1R,3R)-3-[(2S,3S)—N-hexyl-3-methyl-2-{[(2R)-1-methylpiperidin-2-yl]formamido}pentanamido]-1-hydroxy-4-methylpentyl]-1,3-thiazol-4-yl}formamido)-2,2-dimethylpentanoic Acid] | 860 pM | 22x | 15500 pM | 820 pM | 3.2x | 5.2x |  |  |  |  | 
8 | CC[C@H](C)[C@@H]([C@@H](CC(=O)N1CCC[C@H]1[C@H](OC)[C@@H](C)C(=O)N[C@H](C)[C@@H](O)c1ccccc1)OC)N(C)C(=O)[C@@H](NC(=O)[C@@H](NC)C(C)C)C(C)C [MMAE, Monomethyl auristatin E] (H-[NMeV]V[Dil][Dolaproine]-X1) |  |  |  |  |  |  | 220 pM | 99% | 283 pM | 93.7% | 23.7
